Data on five compounds can be found in paper PMC6100385, “Irinotecan and Δ^9-Tetrahydrocannabinol Interactions in Rat Liver: A Preliminary Evaluation Using Biochemical and Genotoxicity Markers” (Molecules : A Journal of Synthetic Chemistry and Natural …, 2018).

Structures are written as SMILES.

Data set [1] has as its system male Wistar rats. As to the kind of experiment: Survival and clinical signs of intoxication. Type of data set: in vivo, rat. The conditions noted are these: IRI 100 mg/kg b.w. i.p. once; own observations same as literature. The protocol: A total of 60 rats were randomly assigned to the following four groups. Group 1: control rats were given the same daily volume of the vehicle sesame oil as the THC-treated group. […] Group 3: rats orally administered THC dissolved in sesame oil at a daily dose of 7 mg/kg b.w. for one, three and seven days, respectively. […] Each group comprised 5 animals with minimal weight variation (300 g ± 10%).
Rats had free access to food and drinking water. Their body weights were regularly monitored and the doses of THC were adjusted accordingly. Survival and clinical signs of intoxication were also evaluated on a daily basis.

Data set [2] concerns hepatocytes of male Wistar rats. As to the kind of experiment: Alkaline comet assay, primary DNA damage. In kind it is in vivo, rat. How it is done:
The obtained cellular suspension was immediately used for preparation of agarose microgels.
To prepare agarose microgels, we used fully frosted precleaned microscope slides (Surgipath®, Cambridgeshire, UK) precoated with 0.6% normal melting point (NMP) agarose. Suspensions of liver cells (V = 10 µL per slide) were mixed with 0.5% low melting point (LMP) agarose, placed on slides and covered with a top layer of 0.5% LMP agarose. The microgels were lysed overnight at 4 °C in a freshly prepared buffer (2.5 mol/L NaCl (Kemika, Zagreb, Croatia), 100 mmol/L Na2EDTA, 10 mmol/L Tris-HCl, 1% Na-laurylsarcosinate, pH = 10) with 1% Triton X-100 and 10% dimethyl sulfoxide (Kemika, Zagreb, Croatia). After lysis, microgels were denatured (20 min) in alkaline denaturation/electrophoresis buffer (300 mM NaOH (Kemika, Zagreb, Croatia) and 1 mM Na2EDTA, pH > 13). Electrophoresis lasted for 20 min, at 4 °C, 25 V, and 300 mA. The microgels were then neutralised using a Tris-HCl buffer (0.4 mol/L; pH = 7.5). Before microscopic analysis, the slides were stained with ethidium bromide (20 µg/mL). They were analysed using an epifluorescence microscope (Olympus BX50, Tokyo, Japan) equipped with appropriate filters, at 200× magnification. The level of DNA damage in individual cells was estimated using Comet Assay IV™ software (Instem-Perceptive Instruments Ltd., Suffolk, Halstead, UK). One well-trained scorer performed all of the comet measurements on the coded/blinded slides. Random fields were selected and the comets were captured at a constant depth of the gel, avoiding edges and occasional dead cells. A total of 200 comets per rat were measured on replicate slides in two independent evaluations (altogether 1000 individual comet measurements per each experimental group were performed). Tail length (presented in micrometres) and tail intensity (i.e., DNA% in tail) were chosen as indicators of DNA damage.

The test system of another data set is liver cells of rats. Set-up: method as in PMID 19663821. The conditions noted are these: 24 h and 72 h; eleven-fold lower IRI dose than tested here; cited from earlier work.
Another data set has as its system rats. The conditions noted are these: cited from earlier work.
A further data set deals with humans. Set-up: method as in PMID 11489791. The conditions noted are these: cited from earlier work.
The test system of data set [3] is liver of rats. As to the kind of experiment: Superoxide dismutase (SOD) activity in the liver. In kind it is in vivo, rat. The conditions noted are these: after 3 days. The protocol:
Total superoxide dismutase (SOD) activity was measured spectrophotometrically according to Flohé and Ötting. The reduction rate of cytochrome c by superoxide radicals was monitored at 550 nm utilizing the xanthine–xanthine oxidase system as the source for O2^•−. SOD competed for the superoxide and decreased the reduction rate of cytochrome c. One unit of SOD was defined as the amount of enzyme that inhibits the rate of cytochrome c reduction by 50%. Enzyme activity was expressed as IU/gprotein.
(§1) Determination of protein concentration was carried out according to the method by Bradford using bovine serum albumin as standard.

The subject of data set [4] is liver of rats. As to the kind of experiment: Lipid peroxidation (TBARS) in the liver. In kind it is in vivo, rat. The protocol: The concentration of thiobarbituric reactive substances (TBARS), as a measure of lipid peroxidation, was determined using a modification of the method by Drury et al.. Butylated hydroxytoluene (BHT; 5 µL; 0.2% w/v) and phosphoric acid (750 µL; 1% v/v) were added to 50 µL samples. After mixing, 250 µL 0.6% (w/w) thiobarbituric acid (TBA) and 445 µL H2O were added and the reaction mixture was incubated in a water bath at 90 °C for 30 min. The mixture was cooled and absorbance was measured at 532 nm on a Shimadzu UV Probe Spectrophotometer (Kyoto, Japan). The concentration of TBARS was calculated using standard curves of increasing 1,1,3,3-tetramethoxypropane concentrations, and expressed as µmol/L.

Another data set relates to CDF1 mice. Set-up: method as in PMID 9247609. The conditions noted are these: i.p. at 100 mg/kg for six days; cited from earlier work.
The conditions of data set [5]: cited from earlier work.
The test system of data set [6] is liver of rats. As to the kind of experiment: Catalase (CAT) activity in the liver. In kind it is in vivo, rat. The conditions noted are these: one day after application, single dose. How it is done:
Catalase activity was measured at 25 °C, pH 7.0, at 240 nm. Enzyme activity was calculated using the molar extinction coefficient ([…]), and expressed as IU/gprotein.
as §1

Data set [7] relates to male Wistar rats. The conditions noted are these: THC p.o.; days 1 and 3.
Description: (§2) Serum biochemical parameters included AST, ALT, bilirubin, ALP, and total protein. These were determined using a chemical analyser (Beckman Coulter AU 480; Brea, CA, USA). Activities of AST, ALT, and ALP were expressed as U/L. The amount of total protein was expressed as g/L. Bilirubin concentration (total bilirubin) was expressed as µmol/L.
The subject of data set [8] is male Wistar rats. As to the kind of experiment: Serum bilirubin (total bilirubin). The conditions noted are these: seven days of continuous intake. Type of data set: in vivo, rat.
Description: as §2
For a further data set, the system named is Sprague-Dawley rats. The conditions noted are these: 3 mg/kg b.w. i.p. for seven days; cited from earlier work.
The conditions of data set [9]: low doses (<5 µg/mL or <5 µmol/L, or <1 joint/day); cited from earlier work.
In data set [10] the test system is male Wistar rats. As to the kind of experiment: Serum alanine aminotransferase (ALT) activity. Type of data set: in vivo, rat.
Description: as §2
Data set [11] deals with male Wistar rats. The conditions noted are these: THC 7 mg/kg b.w. p.o.; all three timepoints.
Description: as §2
For data set [12], the system named is male Wistar rats. As to the kind of experiment: Serum markers of liver function, overall. Type of data set: in vivo, rat. The conditions noted are these: 1-, 3-, 7-day treatments.
Description: as §2

Regarding `CCc1c2c(nc3ccc(OC(=O)N4CCC(N5CCCCC5)CC4)cc13)-c1cc3c(c(=O)n1C2)COC(=O)[C@]3(O)CC` [IRI, 7-ethyl-10-[4-(1-piperidino)-1-piperidino] carbonyloxycamptothecin], the “severe diarrhoea and gastrointestinal toxicity” value in the data set with male Wistar rats [1] was “did not result with severe diarrhoea and gastrointestinal toxicity”. Also, in [2] (1-day treatment), the “comet tail intensity, mean, vs control and THC groups” value is recorded as “significantly increased”; the “comet tail length, mean, vs control and THC groups” value is “significantly increased”. In addition, in data set [2] (3-day treatment), the “comet tail intensity, mean, vs control and THC groups” value was “significantly increased”; the “comet tail length, mean, vs control and THC groups” value is “significantly increased”. The “comet tail intensity, mean, rank among groups” value in data set [2] (7-day treatment) is “highest mean value”. In data set [2] (all timepoints), the “DNA damage, rank among groups” value is “highest DNA damage”. The “primary DNA damage, 1-day vs 3 days” value in data set [2] (single IRI) is “lower than after 3 days”. Also, the “level of DNA damage with prolonged treatment duration” value in [2] (single IRI, seven days) is recorded as “slightly diminished”. For the same compound, in the data set with liver cells of rats, the “primary DNA damage in liver cells” value was “significant increase”. In addition, in the data set on rats (per week), the “maximum tolerated dose for rats” value is 100 mg/kg b.w. Moreover, the “mortality and gastrointestinal mucositis” value in the data set on rats (single dose of 200 mg/kg) is given as “low mortality, but caused reproducible gastrointestinal mucositis”. For the same compound, in the data set on humans, the “maximal and recommended tolerated human doses” value is 10–30 mg/m^2/day. Further, the “SOD activity in liver vs control” value in the data set on liver of rats [3] is recorded as “significantly higher”. In addition, the “TBARS concentration in liver, IRI-treated vs control” value with liver of rats [4] (3- and 7-day timepoints) is on record as “not significant”. For the same compound, the “TBARS concentration in liver (lipid peroxidation), rank among groups” value with liver of rats [4] (one day following application) was “highest level of lipid peroxidation”. Moreover, in the data set on CDF1 mice, the “lipid peroxidation in the liver” value is “increases of IRI-potentiated lipid peroxidation”.
Regarding `CCc1c2c(nc3ccc(O)cc13)-c1cc3c(c(=O)n1C2)COC(=O)[C@]3(O)CC` [SN-38], the “cytotoxicity relative to the parent compound (IRI)” value in data set [5] is on record as 100–1000 fold.
In the case of `CCc1c2c(nc3ccc(OC(=O)N4CCC(NCCCCC(=O)O)CC4)cc13)-c1cc3c(c(=O)n1C2)COC(=O)C3(O)CC` (stereo not drawn) [APC, 7-ethyl-10-[4-N-(5-aminopentanoic acid)-1-piperidino]carbonyloxycamptothecin], in data set [5], the cytotoxic potential entry is on record as “significantly lower cytotoxic potential”.
Take `CCc1c2c(nc3ccc(OC(=O)N4CCC(N)CC4)cc13)-c1cc3c(c(=O)n1C2)COC(=O)[C@]3(O)CC` [NPC, 7-ethyl-10-[4-(1-piperidino)-1-amino]-carbonyloxycamptothecin]: in data set [5], the cytotoxic potential result is reported as “significantly lower cytotoxic potential”.
Turning to `CCCCCc1cc(O)c2c(c1)OC(C)(C)C1CCC(C)=CC21` (stereo not drawn) [THC, Δ^9-tetrahydrocannabinol], in the data set with liver of rats [6], the “CAT activity in liver vs control and IRI-treated rats” value is on record as “significantly increased”. Besides, the “ALP level in serum” value in the data set with male Wistar rats [7] is listed as “increased”. Moreover, the “comet tail length, mean” value in data set [2] (continuous 7-day oral exposure, compared to shorter treatments) is given as “significantly higher mean value of tail length”. Moreover, in data set [2] (shorter exposures (1-, 3-day) to THC p.o.), the risk for genotoxicity result is listed as “not associated with a significant risk for genotoxicity”. In addition, in the data set with male Wistar rats [8], the “serum bilirubin level vs single IRI and combined treatment” value is reported as “higher”. Moreover, in the data set on Sprague-Dawley rats, the “lipid peroxidation in the liver” value was “slightly elevated”, the “liver CAT activity vs control rats” value is “decreased” and the “liver SOD activity vs control rats” value is reported as “non-significant decrease”. In addition, the genotoxic adverse outcomes in data set [9] was “usually not associated with genotoxic adverse outcomes”. The “ALT activity in serum vs IRI-treated rats” value in the data set on male Wistar rats [10] (3-day exposure) is listed as “statistically significant increase”. Also, the “ALT level in serum” value with male Wistar rats [10] (THC p.o., day 3) is reported as “somewhat increased”. Moreover, the “AST activity in serum, trend” value in the data set on male Wistar rats [11] is on record as “trend towards increased AST activity”. Further, in the data set on male Wistar rats [12], the “liver function / serum liver markers, overall” value is “affected ALP and AP levels more than single IRI”.
